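Each compound was tested at five concentrations against cells in 96-well plates for 48 hours. GI50: concentration for 50% inhibition of growth.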 The source made the active and inactive calls. Rule as the data show it: active = GI50 up to about 1.1 µM and inactive = higher.
Experiments:
Assay in all cases: NCI anticancer screen, dose series, 48 h
HOP-62 = tested on: HOP-62
CCRF-CEM = tested on: CCRF-CEM
KM12 = tested on: KM12
CAKI-1 = tested on: CAKI-1
SF-539 = tested on: SF-539
TK-10 = tested on: TK-10
U-251 = tested on: U-251
NCI/ADR-RES = tested on: NCI/ADR-RES
SK-MEL-5 = tested on: SK-MEL-5
NCI-H460 = tested on: NCI-H460
SW-620 = tested on: SW-620
SNB-19 = tested on: SNB-19
HCT-116 = tested on: HCT-116
LOX IMVI = tested on: LOX IMVI
Malme-3M = tested on: Malme-3M
A549 = tested on: A549
MDA-MB-435 = tested on: MDA-MB-435
RXF 393 = tested on: RXF 393
BT-549 = tested on: BT-549
SF-295 = tested on: SF-295
SN12C = tested on: SN12C
K562 = tested on: K562
HL-60 = tested on: HL-60
IGROV-1 = tested on: IGROV-1
SK-MEL-28 = tested on: SK-MEL-28
MDA-MB-231 = tested on: MDA-MB-231
OVCAR-5 = tested on: OVCAR-5
OVCAR-4 = tested on: OVCAR-4
HOP-92 = tested on: HOP-92
HCT-15 = tested on: HCT-15
NCI-H226 = tested on: NCI-H226
MOLT-4 = tested on: MOLT-4
UACC-257 = tested on: UACC-257
COLO 205 = tested on: COLO 205
EKVX = tested on: EKVX
MCF7 = tested on: MCF7
OVCAR-8 = tested on: OVCAR-8
Hs-578T = tested on: Hs-578T
DU-145 = tested on: DU-145
ACHN = tested on: ACHN
HT-29 = tested on: HT-29
SR = tested on: SR
SNB-75 = tested on: SNB-75
NCI-H23 = tested on: NCI-H23
UO-31 = tested on: UO-31
MDA-N = tested on: MDA-N
786-0 = tested on: 786-0
NCI-H522 = tested on: NCI-H522
HCC 2998 = tested on: HCC 2998
SF-268 = tested on: SF-268
OVCAR-3 = tested on: OVCAR-3
RPMI-8226 = tested on: RPMI-8226
A498 = tested on: A498
PC-3 = tested on: PC-3
SK-MEL-2 = tested on: SK-MEL-2
M14 = tested on: M14
UACC-62 = tested on: UACC-62
T47D = tested on: T47D
SK-OV-3 = tested on: SK-OV-3

Measured: GI50

Nc1nc(Cl)c(CO)c(NCC2(CO)CCC2)n1
> 100 µM: HCT-15
inactive: HOP-62 > 100 µM | CCRF-CEM > 100 µM | KM12 75.7 µM | CAKI-1 > 100 µM | SF-539 > 100 µM | TK-10 > 100 µM | U-251 > 100 µM | NCI/ADR-RES > 100 µM | SK-MEL-5 > 100 µM | NCI-H460 > 100 µM | SW-620 > 100 µM | SNB-19 94.2 µM | HCT-116 > 100 µM | LOX IMVI > 100 µM | Malme-3M > 100 µM | A549 > 100 µM | MDA-MB-435 > 100 µM | RXF 393 > 100 µM | BT-549 > 100 µM | SF-295 > 100 µM | SN12C > 100 µM | K562 > 100 µM | HL-60 > 100 µM | IGROV-1 > 100 µM | SK-MEL-28 > 100 µM | MDA-MB-231 > 100 µM | OVCAR-5 > 100 µM | OVCAR-4 > 100 µM | HOP-92 > 100 µM | NCI-H226 > 100 µM | MOLT-4 > 100 µM | UACC-257 > 100 µM | COLO 205 > 100 µM | EKVX > 100 µM | MCF7 > 100 µM | OVCAR-8 > 100 µM | Hs-578T > 100 µM | DU-145 > 100 µM | ACHN > 100 µM | HT-29 > 100 µM | SR > 100 µM | SNB-75 > 100 µM | NCI-H23 41.9 µM | UO-31 > 100 µM | MDA-N > 100 µM | 786-0 > 100 µM | NCI-H522 > 100 µM | HCC 2998 > 100 µM | SF-268 > 100 µM | OVCAR-3 > 100 µM | RPMI-8226 > 100 µM | A498 > 100 µM | PC-3 88.7 µM

CC1=CC2C(C(C)C)CC1C1C(=O)OC(=O)C21 (stereo not given)
58.2 µM: HCT-15
inactive: HOP-62 99.3 µM | SK-MEL-2 > 100 µM | SF-539 > 100 µM | M14 > 100 µM | TK-10 45.8 µM | U-251 64.1 µM | NCI/ADR-RES 77.3 µM | SK-MEL-5 85.5 µM | NCI-H460 > 100 µM | SW-620 86.9 µM | SNB-19 > 100 µM | HCT-116 76.7 µM | LOX IMVI > 100 µM | Malme-3M 52 µM | A549 > 100 µM | MDA-MB-435 > 100 µM | RXF 393 > 100 µM | BT-549 84.1 µM | SN12C 79.3 µM | K562 39.7 µM | HL-60 23.3 µM | IGROV-1 14.4 µM | UACC-62 > 100 µM | T47D 49.8 µM | SK-MEL-28 > 100 µM | MDA-MB-231 > 100 µM | OVCAR-5 > 100 µM | OVCAR-4 91 µM | HOP-92 65.5 µM | NCI-H226 > 100 µM | UACC-257 > 100 µM | COLO 205 > 100 µM | EKVX > 100 µM | MCF7 > 100 µM | OVCAR-8 65.6 µM | Hs-578T 75.3 µM | DU-145 > 100 µM | ACHN > 100 µM | HT-29 > 100 µM | SNB-75 > 100 µM | NCI-H23 > 100 µM | UO-31 > 100 µM | SK-OV-3 > 100 µM | 786-0 > 100 µM | NCI-H522 52.7 µM | HCC 2998 30.9 µM | SF-268 > 100 µM | OVCAR-3 23.2 µM | A498 > 100 µM | PC-3 76.6 µM

Source: ChEMBL document CHEMBL1201862, “PubChem BioAssay data set” (2004)
